Experimental data from ChEMBL document CHEMBL3508693 (2016).

Tests used:
[1] = Excretion of radioactivity (48-72h) in faeces following single intravenous dose of 10 mg.Kg-1 [14C] aliskiren hemifumarate in mouse; type: ADME, organism-based, TgRasH2, Feces; details: in vivo
[2] = Excretion of radioactivity (72-96h) in faeces following single intravenous dose of 10 mg.Kg-1 [14C] aliskiren hemifumarate in rat; type: ADME, organism-based, Albino HAN:WIST, Feces; details: in vivo
[3] = Plasma concentration of [14C] aliskiren hemifumarate in first 4h following single intravenous […] dose of [14C] aliskiren hemifumarate at 10 mg.Kg-1 level in mouse; type: ADME, organism-based, TgRasH2; details: in vivo
[4] = Excretion of radioactivity (0-96h) in faeces following single oral dose of 100 mg.Kg-1 [14C] aliskiren hemifumarate in rat; type: ADME, organism-based, Albino HAN:WIST, Feces; details: in vivo
[5] = Mean excretion of radioactivity (0-72h) in urine and faeces following single intravenous dose of 10 mg.Kg-1 [14C] aliskiren hemifumarate in mouse; type: ADME, organism-based, TgRasH2, Urine/Feces; details: in vivo
[6] = Excretion of radioactivity (0-24h) in faeces following single intravenous dose of 10 mg.Kg-1 [14C] aliskiren hemifumarate in rat; type: ADME, organism-based, Albino HAN:WIST, Feces; details: in vivo
[7] = Concentration of radioactivity in the liver following repeated oral administration of [14C] aliskiren hemifumarate at 100 mg.Kg-1 level studied at 24h after 7th dose in rat; type: ADME, organism-based, Albino HAN:WIST; details: in vivo
[8] = Plasma concentration of [14C] aliskiren hemifumarate in first 24h following single oral dose of [14C] aliskiren hemifumarate at 500 mg.Kg-1 level in mouse; type: ADME, organism-based, TgRasH2; details: in vivo
[9] = Cmax (0-168h) of total radioactivity following single intravenous administration of [14C] aliskiren hemifumarate at 1 mg.Kg-1 level in marmoset; type: ADME, organism-based, Callithrix jacchus, Plasma; details: in vivo
[10] = Excretion of radioactivity (48-72h) in urine following single intravenous dose of 10 mg.Kg-1 [14C] aliskiren hemifumarate in rat; type: ADME, organism-based, Albino HAN:WIST; details: in vivo
[11] = Excretion (24h) of radioactivity in faeces following oral administration of [14C] aliskiren hemifumarate at 100 mg.Kg-1 level in rat; type: ADME, organism-based, Lister-Hooded, Feces; details: in vivo
[12] = AUCss(tau)/dose of aliskiren hemifumarate following repeated oral administration of [14C] aliskiren hemifumarate at 100 mg.Kg-1 level studied in rat; type: ADME, organism-based, Albino HAN:WIST, Plasma; details: in vivo
[13] = AUC(0-24h) of aliskiren hemifumarate following 2 week oral dosing of aliskiren hemifumarate at 50 mg.Kg-1 level studied on day 1 in female Callithrix jacchus; type: ADME, organism-based; details: marmoset, plasma
[14] = Tmax of unlabeled aliskiren hemifumarate following single intravenous dose of aliskiren hemifumarate at 10 mg.Kg-1 level in mouse; type: ADME, organism-based; details: TgRasH2, mouse, plasma
[15] = Tmax of aliskiren hemifumarate following 2 week oral dosing of aliskiren hemifumarate at 100 mg.Kg-1 level studied on day 14 in male Callithrix jacchus; type: ADME, organism-based; details: marmoset, plasma
[16] = Effect of 2 week oral dosing of aliskiren hemifumarate at 100 mg.Kg-1 level on hematological parameter values in male Callithrix jacchus; type: toxicity, organism-based, Plasma; details: marmoset, in vivo, 336 h
[17] = Tmax of aliskiren hemifumarate following 4 week oral dietary dosing of aliskiren hemifumarate at 500 mg.Kg-1 level in male mouse; type: ADME, organism-based; details: CB6F1-TGrasH2, mouse, in vivo
[18] = Cmax of aliskiren hemifumarate following 4 week oral dietary dosing of aliskiren hemifumarate at 1500 mg.Kg-1 level in female mouse; type: ADME, organism-based; details: CB6F1-TGrasH2, mouse, in vivo
[19] = Cmaxspec of aliskiren hemifumarate following 2 week oral dosing of aliskiren hemifumarate at 50 mg.Kg-1 level studied on day 1 in female Callithrix jacchus; type: ADME, organism-based, Plasma; details: marmoset, in vivo, 336 h
[20] = AUC(0-24h) of aliskiren hemifumarate following 2 week oral dosing of aliskiren hemifumarate at 50 mg.Kg-1 level studied on day 1 in male Callithrix jacchus; type: ADME, organism-based; details: marmoset, plasma
[21] = AUC(0-24h) of aliskiren hemifumarate following 2 week oral dosing of aliskiren hemifumarate at 100 mg.Kg-1 level studied on day 1 in female Callithrix jacchus; type: ADME, organism-based; details: marmoset, plasma
[22] = Cmax/dose of aliskiren hemifumarate following 4 week oral dietary dosing of aliskiren hemifumarate at 2000 mg.Kg-1 level in male mouse; type: ADME, organism-based, CB6F1-TGrasH2; details: in vivo, 672 h
[23] = Effect of 2 week oral dosing of aliskiren hemifumarate at 10 mg.Kg-1 level on blood urea nitrogen level in male Callithrix jacchus; type: toxicity, organism-based, Plasma; details: marmoset, 336 h
[24] = AUC (0-24h) of aliskiren hemifumarate following 4 week oral dietary dosing of aliskiren hemifumarate at 1500 mg.Kg-1 level in female mouse; type: ADME, organism-based; details: CB6F1-TGrasH2, mouse, plasma
[25] = AUC infinity of aliskiren hemifumarate following 2 week oral dosing of aliskiren hemifumarate at 50 mg.Kg-1 level studied on day 1 in male Callithrix jacchus; type: ADME, organism-based; details: marmoset, plasma, read-out: AUC infinity
[26] = Tmax of aliskiren hemifumarate following 4 week oral dietary dosing of aliskiren hemifumarate at 1500 mg.Kg-1 level in female mouse; type: ADME, organism-based; details: CB6F1-TGrasH2, mouse, in vivo
[27] = Cmax/dose of aliskiren hemifumarate following 4 week oral dietary dosing of aliskiren hemifumarate at 1500 mg.Kg-1 level in male mouse; type: ADME, organism-based, CB6F1-TGrasH2; details: in vivo, 672 h
[28] = % of radioactivity recovered as aliskiren in urine following intravenous administration of [14C] aliskiren hemifumarate at 10 mg.Kg-1 level in rat; type: ADME, organism-based, Albino HAN:WIST; details: in vivo
[29] = AUC of SPP100 following single oral dose of [14C] aliskiren hemifumarate at 3 mg.Kg-1 level in marmoset; type: ADME, organism-based, Callithrix jacchus, Plasma; details: in vivo
CYP1A2 = target: T1, CYP1A2 (Homo sapiens, UniProt P05177); assay: Inhibitory activity of 200 uM SPP100 on 548 Pmoles of cDNA-derived CYP1A2 enzyme in microsome prepared from human lymphoblastoid cell line; type: ADME, microsomes; parameters: conc 200 uM, interact cpd conc 50 uM; details: probe phenacetin
T1 sequence (P05177 whole entry): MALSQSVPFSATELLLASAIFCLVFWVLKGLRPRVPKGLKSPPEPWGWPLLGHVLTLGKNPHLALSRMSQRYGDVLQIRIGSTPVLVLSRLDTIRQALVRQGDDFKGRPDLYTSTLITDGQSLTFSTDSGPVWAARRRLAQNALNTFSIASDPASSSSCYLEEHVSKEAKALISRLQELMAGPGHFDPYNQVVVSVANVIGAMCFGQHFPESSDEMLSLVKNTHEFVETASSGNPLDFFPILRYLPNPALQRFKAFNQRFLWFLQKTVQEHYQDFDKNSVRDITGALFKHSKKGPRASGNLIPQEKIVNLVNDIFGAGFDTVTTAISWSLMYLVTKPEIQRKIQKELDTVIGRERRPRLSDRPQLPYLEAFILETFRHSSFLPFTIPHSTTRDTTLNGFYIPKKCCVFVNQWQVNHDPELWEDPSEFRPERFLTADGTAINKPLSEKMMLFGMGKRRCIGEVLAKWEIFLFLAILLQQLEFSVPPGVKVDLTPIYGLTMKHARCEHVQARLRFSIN

[30] = Oral clearance of SPP100 following single oral dose of SPP100 150 mg capsule studied in healthy human; type: ADME, organism-based; details: plasma
CYP2C19 = CYP2C19 (Homo sapiens, UniProt P33261); assay: Inhibitory activity of 20 uM SPP100 on 1174 Pmoles of cDNA-derived CYP2C19 enzyme in microsome prepared from human lymphoblastoid cell line; type: ADME, microsomes; parameters: conc 20 uM, interact cpd conc 50 uM; details: probe (S)-mephenytoin
[31] = Excretion (0-168h) of aliskiren in urine following intravenous administration of [14C] aliskiren hemifumarate at 1 mg.Kg-1 level in marmoset; type: ADME, organism-based, Callithrix jacchus; details: in vivo
[32] = % SPP100 (0-168h) recovered in urine following single intravenous dose of [14C] aliskiren hemifumarate at 1 mg.Kg-1 level in marmoset; type: ADME, organism-based, Callithrix jacchus; details: in vivo

Sequence of CYP2C19 (P33261 whole entry): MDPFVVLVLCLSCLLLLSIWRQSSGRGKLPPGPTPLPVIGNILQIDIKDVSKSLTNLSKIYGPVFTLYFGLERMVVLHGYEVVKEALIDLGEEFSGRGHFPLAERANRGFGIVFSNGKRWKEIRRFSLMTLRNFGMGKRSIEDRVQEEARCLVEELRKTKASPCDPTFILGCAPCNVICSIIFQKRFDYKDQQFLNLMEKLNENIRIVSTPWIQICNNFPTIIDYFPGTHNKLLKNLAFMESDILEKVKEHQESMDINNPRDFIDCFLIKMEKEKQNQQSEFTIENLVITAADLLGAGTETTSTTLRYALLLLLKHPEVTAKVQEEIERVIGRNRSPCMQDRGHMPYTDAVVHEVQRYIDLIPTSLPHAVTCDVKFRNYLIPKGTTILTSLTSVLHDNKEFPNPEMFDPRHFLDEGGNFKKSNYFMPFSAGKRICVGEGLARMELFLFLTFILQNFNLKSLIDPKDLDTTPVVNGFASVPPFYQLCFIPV

## COCCCOc1cc(C[C@@H](C[C@H](N)[C@@H](O)C[C@H](C(=O)NCC([14CH3])([14CH3])C(N)=O)C(C)C)C(C)C)ccc1OC.O=C(O)/C=C/C(=O)O
[1]
  Radiolabel recovery: 0.74%
[2]
  Radiolabel recovery: 2.07%
[3]
  Compound recovery: 94%
[4]
  Radiolabel recovery: 4.2%
[5]
  Radiolabel recovery: 93.08%
[6]
  Radiolabel recovery: 55.7%
[7]
  Radiolabel recovery: OUTCOME = Detected
[8]
  Compound recovery: 56%
[9]
  Cmax: 11.4 µM
[10]
  Radiolabel recovery: 16.2%
[11]
  Radiolabel recovery: 86%

## COCCCOc1cc(C[C@@H](C[C@H](N)[C@@H](O)C[C@H](C(=O)NCC(C)(C)C(N)=O)C(C)C)C(C)C)ccc1OC.COCCCOc1cc(C[C@@H](C[C@H](N)[C@@H](O)C[C@H](C(=O)NCC(C)(C)C(N)=O)C(C)C)C(C)C)ccc1OC.O=C(O)/C=C/C(=O)O [ALISKIREN FUMARATE]
[12]
  AUCss(tau) normalised: 10 (nmol.h.L-1)/(mg/kg)
[13]
  AUC(0-t) at 24 h: 56200 ng·h/mL
[14]
  Tmax: 4.98 min
[15]
  Tmax: 2 h
[16]
  Change in hematology: OUTCOME = Hematological parameter values did not differ from control values. No animals died during the study.
[17]
  Tmax: 3 h
[18]
  Cmax: 1020 ng/mL
[19]
  Cmax normalised: 0.177 (ug/ml)/(mg/kg)
[20]
  AUC(0-t) at 24 h: 58100 ng·h/mL
[21]
  AUC(0-t) at 24 h: 84000 ng·h/mL
[22]
  Cmax normalised: 0.22 (ng/mL)/(mg/kg/day)
[23]
  BUN_CHANGE_BY: 5%
[24]
  AUC(0-t) at 24 h: 5470 ng·h/mL
[25]
  AUC(0-inf): 64000 ng·h/mL
[26]
  Tmax: 30 min
[27]
  Cmax normalised: 0.242 (ng/mL)/(mg/kg/day)

## COCCCOc1cc(C[C@@H](C[C@H](N)[C@@H](O)C[C@H](C(=O)NCC(C)(C)C(N)=O)C(C)C)C(C)C)ccc1OC
[28]
  Compound recovery: > 2%
[29]
  AUC: 868 ng·h/mL
CYP1A2
  inhibition at 200 µM: -6.4%
[30]
  CL/F: 5350 mL/min
CYP2C19
  inhibition at 20 µM: -1.5%
[31]
  Compound recovery: 3%
[32]
  Compound recovery: 3%
